39 compounds from ChEMBL document CHEMBL2417434, “The first synthesis of natural disulfide bruguiesulfurol and biological evaluation of its derivatives as a novel scaffold for PTP1B inhibitors” (Bioorg Med Chem Lett, 2013) can be followed below.

In test [1] the target is T1, Tyrosine-protein phosphatase non-receptor type 1 (Homo sapiens, UniProt P18031).
T1 sequence (P18031 whole entry): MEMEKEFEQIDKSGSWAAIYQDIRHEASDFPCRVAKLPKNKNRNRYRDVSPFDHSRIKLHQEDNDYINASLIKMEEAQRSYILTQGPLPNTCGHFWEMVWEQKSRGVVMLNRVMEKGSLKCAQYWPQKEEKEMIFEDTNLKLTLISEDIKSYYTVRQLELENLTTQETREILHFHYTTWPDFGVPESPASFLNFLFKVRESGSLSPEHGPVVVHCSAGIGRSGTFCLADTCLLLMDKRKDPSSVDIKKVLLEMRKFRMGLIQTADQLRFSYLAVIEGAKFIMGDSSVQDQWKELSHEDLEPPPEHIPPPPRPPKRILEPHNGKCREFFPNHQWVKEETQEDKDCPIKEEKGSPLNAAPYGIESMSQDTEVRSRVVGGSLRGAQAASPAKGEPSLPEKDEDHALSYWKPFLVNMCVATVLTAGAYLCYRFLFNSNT
As to the kind of experiment: Inhibition of PTP1B (unknown origin).

For test [2], the target named is Receptor-type tyrosine-protein phosphatase F (Homo sapiens, UniProt P10586). The experiment in a line: Inhibition of LAR (unknown origin).
Test [3] has as its target T2, Tyrosine-protein phosphatase non-receptor type 2 (Homo sapiens, UniProt P17706).
T2 sequence (P17706 whole entry): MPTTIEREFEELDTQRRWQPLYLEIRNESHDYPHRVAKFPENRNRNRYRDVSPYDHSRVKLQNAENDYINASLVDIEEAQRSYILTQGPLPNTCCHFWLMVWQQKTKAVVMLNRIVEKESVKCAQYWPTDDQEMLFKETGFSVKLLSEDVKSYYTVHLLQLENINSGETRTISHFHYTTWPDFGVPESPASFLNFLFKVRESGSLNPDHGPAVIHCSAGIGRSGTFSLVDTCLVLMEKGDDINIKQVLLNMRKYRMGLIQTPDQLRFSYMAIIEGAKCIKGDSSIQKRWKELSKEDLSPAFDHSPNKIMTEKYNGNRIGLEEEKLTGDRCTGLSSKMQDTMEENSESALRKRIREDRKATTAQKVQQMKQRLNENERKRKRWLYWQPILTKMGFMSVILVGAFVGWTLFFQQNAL
As to the kind of experiment: Inhibition of TCPTP (unknown origin).

For test [4], the target named is T3, Tyrosine-protein phosphatase non-receptor type 11 (Homo sapiens, UniProt Q06124).
T3 sequence (Q06124 whole entry): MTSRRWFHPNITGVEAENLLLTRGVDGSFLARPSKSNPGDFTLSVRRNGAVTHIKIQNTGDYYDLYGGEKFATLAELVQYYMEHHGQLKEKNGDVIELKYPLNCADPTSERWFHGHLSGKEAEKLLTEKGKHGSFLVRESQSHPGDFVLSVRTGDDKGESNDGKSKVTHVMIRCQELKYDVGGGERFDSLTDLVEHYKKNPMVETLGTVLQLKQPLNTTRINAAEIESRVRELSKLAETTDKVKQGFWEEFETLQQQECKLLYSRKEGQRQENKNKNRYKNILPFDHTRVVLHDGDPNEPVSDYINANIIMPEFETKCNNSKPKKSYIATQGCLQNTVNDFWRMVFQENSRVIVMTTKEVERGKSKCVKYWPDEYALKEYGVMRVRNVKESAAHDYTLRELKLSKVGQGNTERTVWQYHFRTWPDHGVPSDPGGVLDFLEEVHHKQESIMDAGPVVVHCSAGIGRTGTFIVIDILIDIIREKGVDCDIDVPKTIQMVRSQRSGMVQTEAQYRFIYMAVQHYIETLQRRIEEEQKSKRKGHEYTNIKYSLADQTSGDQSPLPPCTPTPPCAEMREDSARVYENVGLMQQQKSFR
As to the kind of experiment: Inhibition of SHP2 (unknown origin).

Test [5] addresses Tyrosine-protein phosphatase non-receptor type 6 (Homo sapiens, UniProt P29350). The experiment in a line: Inhibition of SHP1 (unknown origin).

Chain of Tyrosine-protein phosphatase non-receptor type 6 (P29350 whole entry): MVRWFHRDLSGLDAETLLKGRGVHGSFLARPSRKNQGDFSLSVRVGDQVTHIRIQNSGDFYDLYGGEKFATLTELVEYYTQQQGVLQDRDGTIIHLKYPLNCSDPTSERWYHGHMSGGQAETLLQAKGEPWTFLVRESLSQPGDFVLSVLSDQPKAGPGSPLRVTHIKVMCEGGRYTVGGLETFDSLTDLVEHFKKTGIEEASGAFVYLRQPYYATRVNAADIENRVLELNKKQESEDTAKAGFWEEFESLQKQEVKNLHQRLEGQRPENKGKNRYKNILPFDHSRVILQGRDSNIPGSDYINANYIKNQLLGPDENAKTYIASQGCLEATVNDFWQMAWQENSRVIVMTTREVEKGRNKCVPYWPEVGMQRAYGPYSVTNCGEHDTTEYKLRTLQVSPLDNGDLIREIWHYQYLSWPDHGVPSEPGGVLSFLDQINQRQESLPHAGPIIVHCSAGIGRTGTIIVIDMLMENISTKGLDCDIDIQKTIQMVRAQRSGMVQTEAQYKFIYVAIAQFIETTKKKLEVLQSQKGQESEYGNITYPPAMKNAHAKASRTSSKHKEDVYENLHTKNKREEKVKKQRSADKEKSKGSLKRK
Chain of Receptor-type tyrosine-protein phosphatase F (P10586 whole entry): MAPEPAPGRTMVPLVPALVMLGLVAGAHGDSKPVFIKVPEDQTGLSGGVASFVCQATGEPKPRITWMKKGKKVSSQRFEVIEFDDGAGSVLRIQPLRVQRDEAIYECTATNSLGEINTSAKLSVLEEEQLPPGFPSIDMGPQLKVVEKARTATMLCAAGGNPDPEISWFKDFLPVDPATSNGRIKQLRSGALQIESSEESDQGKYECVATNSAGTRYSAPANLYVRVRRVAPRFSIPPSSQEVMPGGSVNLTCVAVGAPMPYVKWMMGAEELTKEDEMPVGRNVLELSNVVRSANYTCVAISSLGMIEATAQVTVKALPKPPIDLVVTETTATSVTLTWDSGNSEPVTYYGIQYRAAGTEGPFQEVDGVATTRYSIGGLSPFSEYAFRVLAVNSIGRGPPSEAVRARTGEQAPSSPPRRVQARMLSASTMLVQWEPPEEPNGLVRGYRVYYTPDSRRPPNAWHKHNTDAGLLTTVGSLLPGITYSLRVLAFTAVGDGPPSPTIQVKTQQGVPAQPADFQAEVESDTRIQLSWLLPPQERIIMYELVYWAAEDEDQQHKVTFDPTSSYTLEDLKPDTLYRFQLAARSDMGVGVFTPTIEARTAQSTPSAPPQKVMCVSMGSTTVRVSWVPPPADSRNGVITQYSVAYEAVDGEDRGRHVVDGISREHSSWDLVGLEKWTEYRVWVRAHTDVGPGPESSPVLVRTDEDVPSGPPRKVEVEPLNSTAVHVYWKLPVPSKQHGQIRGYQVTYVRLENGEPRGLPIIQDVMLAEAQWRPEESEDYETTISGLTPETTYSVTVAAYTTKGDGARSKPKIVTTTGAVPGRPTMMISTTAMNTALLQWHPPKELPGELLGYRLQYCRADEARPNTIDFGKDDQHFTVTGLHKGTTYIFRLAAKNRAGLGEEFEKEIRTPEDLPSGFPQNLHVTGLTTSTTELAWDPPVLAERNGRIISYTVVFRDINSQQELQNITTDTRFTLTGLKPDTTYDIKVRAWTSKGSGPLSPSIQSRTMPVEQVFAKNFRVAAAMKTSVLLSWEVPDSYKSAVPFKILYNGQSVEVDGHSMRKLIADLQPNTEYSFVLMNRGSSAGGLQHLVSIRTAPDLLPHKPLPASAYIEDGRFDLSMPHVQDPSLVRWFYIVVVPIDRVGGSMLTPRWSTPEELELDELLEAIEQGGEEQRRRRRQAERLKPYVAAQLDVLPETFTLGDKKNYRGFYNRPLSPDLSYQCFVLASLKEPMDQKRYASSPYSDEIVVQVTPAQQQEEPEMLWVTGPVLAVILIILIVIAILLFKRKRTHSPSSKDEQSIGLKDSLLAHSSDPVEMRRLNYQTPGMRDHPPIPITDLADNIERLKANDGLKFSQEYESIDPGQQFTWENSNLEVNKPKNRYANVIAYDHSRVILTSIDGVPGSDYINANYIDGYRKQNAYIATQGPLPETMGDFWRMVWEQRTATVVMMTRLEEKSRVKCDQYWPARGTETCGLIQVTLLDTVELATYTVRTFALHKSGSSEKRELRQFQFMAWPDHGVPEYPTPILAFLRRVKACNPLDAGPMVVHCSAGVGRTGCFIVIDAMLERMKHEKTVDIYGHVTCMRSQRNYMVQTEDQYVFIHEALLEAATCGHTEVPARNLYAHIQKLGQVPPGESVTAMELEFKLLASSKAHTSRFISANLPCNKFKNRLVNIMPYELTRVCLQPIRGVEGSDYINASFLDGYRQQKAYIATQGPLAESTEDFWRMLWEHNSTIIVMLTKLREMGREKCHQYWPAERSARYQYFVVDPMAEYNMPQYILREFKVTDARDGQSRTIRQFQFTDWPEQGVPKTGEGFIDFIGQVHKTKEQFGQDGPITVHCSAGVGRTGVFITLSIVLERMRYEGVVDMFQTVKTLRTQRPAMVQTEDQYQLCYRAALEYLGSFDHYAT

With `COc1ccc(C(=O)OC2CSSC2)c(OC)c1`, in test [1], the IC50 entry is listed as “Not Active”.
As for `O=C(Cc1ccc(Br)cc1)OC1CSSC1`, in test [1], the IC50 entry is given as “Not Active”.
The same measure, in the same setting: for `O=C(OC1CS[S+]([O-])C1)c1ccc(F)cc1` (configuration not stated) the value was “Not Active”.
Take `O=C(OC1CSSC1)c1ccoc1`: the IC50 entry in test [2] was “Not Active”; in test [3] it was “Not Active”; in test [1] (read-out: IC50), 78.2 µM; in test [4] (read-out: IC50) it was 21.4 µM; in test [5] (read-out: IC50), 17.9 µM.
As to `O=C(OC1CSSC1)c1ccccc1Br`, the IC50 entry in test [1] is recorded as “Not Active”.
As to `O=C(Cc1ccc(Br)cc1)OC1CSS(=O)(=O)C1` (configuration not stated), the IC50 entry in test [1] is “Not Active”.
Still for that read-out and setting: for `O=C(OC1CSS(=O)(=O)C1)c1ccccc1I` (configuration not stated) the value was “Not Active”.
In the case of `O=C(OC1CSSC1)c1ccco1`, the IC50 entry was “Not Active” in test [2]; 75.4 µM in test [3] (read-out: IC50); 35.2 µM in test [1] (read-out: IC50); 22.3 µM in test [4] (read-out: IC50); 15.8 µM in test [5] (read-out: IC50).
With `O=C(OC1CSSC1)c1ccc(Br)cc1`, the IC50 in test [2] (read-out: IC50) is 34.6 µM; in test [3] (read-out: IC50), 34 µM; in test [1] (read-out: IC50), 11 µM; in test [4] it was “Not Active”; in test [5], “Not Active”.
In the case of `O=C(Cc1ccc(Br)cc1)OC1CS[S+]([O-])C1` (configuration not stated), the 50% inhibitory concentration (IC50) entry in test [2] is “Not Active”; in test [3], “Not Active”; in test [1] (read-out: IC50), 45 µM; in test [4] it was “Not Active”; in test [5] it was “Not Active”.
In the case of `O=C(OC1CSSC1)c1ccccc1I`, the IC50 in test [2] (read-out: IC50) is 20.4 µM; in test [3] (read-out: IC50) it was 42.1 µM; in test [1] (read-out: IC50) it was 48.2 µM; in test [4] it was “Not Active”; in test [5], “Not Active”.
`O=C(OC1CSSC1)c1ccc(I)cc1`: the IC50 result in test [2] was “Not Active”; in test [3] (read-out: IC50), 34.1 µM; in test [1] (read-out: IC50), 33.4 µM; in test [4], “Not Active”; in test [5] it was “Not Active”.
As for `O=C(OC1CSSC1)c1ccc(Cl)cc1`, the half-inhibitory concentration (IC50) result in test [1] was “Not Active”.
Still for that read-out and setting: for `O=C(OC1CSSC1)c1ccccc1` the value was “Not Active”.
Regarding `O=C(OC1CS[S+]([O-])C1)c1cc2ccccc2[nH]1` (configuration not stated), the IC50 entry in test [2] was “Not Active”; in test [3] (read-out: IC50) it was 52.6 µM; in test [1] (read-out: IC50), 31.4 µM; in test [4] it was “Not Active”; in test [5], “Not Active”.
For the compound `O=C(OC1CSS(=O)(=O)C1)c1cccc(Br)c1` (configuration not stated), the half-inhibitory concentration (IC50) entry in test [2] was “Not Active”; in test [3], “Not Active”; in test [1] (read-out: IC50), 29 µM; in test [4], “Not Active”; in test [5] it was “Not Active”.
Regarding `O=C(OC1CSS(=O)(=O)C1)c1cc2ccccc2[nH]1` (configuration not stated), the IC50 entry in test [1] is “Not Active”.
Still for that read-out and setting: for `O=C(OC1CSS(=O)(=O)C1)c1cc(Br)ccc1Br` (configuration not stated) the value was “Not Active”.
Consider `O=C(OC1CS[S+]([O-])C1)c1ccccc1I` (configuration not stated), for which the half-inhibitory concentration (IC50) entry in test [2] was “Not Active”; in test [3] (read-out: IC50), 36.8 µM; in test [1] (read-out: IC50), 29.7 µM; in test [4], “Not Active”; in test [5], “Not Active”.
`O=C(OC1CSS(=O)(=O)C1)c1ccc(Br)cc1` (configuration not stated): in test [1], the IC50 entry is on record as “Not Active”.
Consider `NS(=O)(=O)c1ccc(C(=O)OC2CSSC2)cc1`, for which the half-inhibitory concentration (IC50) result in test [2] is “Not Active”; in test [3] (read-out: IC50) it was 40.7 µM; in test [1] (read-out: IC50), 24.9 µM; in test [4] (read-out: IC50), 13.4 µM; in test [5] (read-out: IC50), 14 µM.
As for `O=C(OC1CSSC1)c1cc2ccccc2[nH]1`, the concentration for half-maximal inhibition (IC50) result in test [2] is “Not Active”; in test [3] (read-out: IC50), 35.8 µM; in test [1] (read-out: IC50), 24.1 µM; in test [4], “Not Active”; in test [5], “Not Active”.
On to `O=C(OC1CS[S+]([O-])C1)c1ccccc1Br` (configuration not stated), for which the IC50 entry in test [1] was “Not Active”.
With `O=C(OC1CS[S+]([O-])C1)c1ccc(I)cc1` (configuration not stated), the IC50 entry in test [2] was “Not Active”; in test [3] (read-out: IC50) it was 33 µM; in test [1] (read-out: IC50) it was 22.4 µM; in test [4], “Not Active”; in test [5] it was “Not Active”.
On to `CC(=O)OC1CSSC1`, for which the IC50 entry in test [1] was “Not Active”.
As for `O=C(OC1CSSC1)c1ccc([N+](=O)[O-])cc1`, the IC50 entry in test [2] is “Not Active”; in test [3] (read-out: IC50), 37.4 µM; in test [1] (read-out: IC50), 22.6 µM; in test [4], “Not Active”; in test [5], “Not Active”.
In the case of `O=C(OC1CSSC1)c1ccc(F)cc1`, the concentration for half-maximal inhibition (IC50) result in test [1] is recorded as “Not Active”.
In the case of `O=C(OC1CSSC1)c1ccc[nH]1`, the half-inhibitory concentration (IC50) entry in test [1] was “Not Active”.
For the compound `O=C(OC1CS[S+]([O-])C1)c1cc(Br)ccc1Br` (configuration not stated), the IC50 result in test [2] is “Not Active”; in test [3] (read-out: IC50), 11.1 µM; in test [1] (read-out: IC50), 4.54 µM; in test [4], “Not Active”; in test [5], “Not Active”.
Turning to `O=C(OC1CSSC1)c1cccc(Br)c1`, in test [1], the IC50 result was “Not Active”.
The same measure, in the same setting: for `O=C(CCc1ccc(Br)cc1)OC1CSSC1` the value was “Not Active”.
In the case of `O=C(OC1CSSC1)c1cc(Br)ccc1Br`, the IC50 entry in test [2] is “Not Active”; in test [3] (read-out: IC50), 20.4 µM; in test [1] (read-out: IC50), 25.6 µM; in test [4], “Not Active”; in test [5] (read-out: IC50), 10.9 µM.
In the case of `O=C(OC1CS[S+]([O-])C1)c1ccc(Br)cc1` (configuration not stated), the IC50 result in test [1] is given as “Not Active”.
For `O=C(OC1CSS(=O)(=O)C1)c1ccc(I)cc1` (configuration not stated), the IC50 result in test [1] was “Not Active”.
As for `O=C(OC1CSS(=O)(=O)C1)c1ccc(F)cc1` (configuration not stated), in test [1], the IC50 entry is given as “Not Active”.
As to `O=C(OC1CS[S+]([O-])C1)c1cccc(Br)c1` (configuration not stated), the IC50 entry in test [2] is “Not Active”; in test [3] it was “Not Active”; in test [1] (read-out: IC50), 28 µM; in test [4] it was “Not Active”; in test [5], “Not Active”.
Take `O=S1(=O)C[C@H](O)CS1` [BRUGUIESULFUROL]: in test [1] (read-out: IC50), the IC50 is 17.5 µM.
As to `O=C(OC1CSS(=O)(=O)C1)c1ccccc1Br` (configuration not stated), in test [1], the IC50 entry was “Not Active”.
With `O=C(OC1CSSC1)c1cc([N+](=O)[O-])cc([N+](=O)[O-])c1`, the IC50 entry in test [2] is “Not Active”; in test [3] (read-out: IC50) it was 27.3 µM; in test [1] (read-out: IC50) it was 14.8 µM; in test [4] (read-out: IC50), 13.8 µM; in test [5] (read-out: IC50), 24.4 µM.

As a reminder, the IC50 is the concentration needed to halve the response being measured.
